Active and inactive are the calls of the source.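 How the source made its calls: active means a tumor-causing dose value with its tumor site reported for any sex and species group of a rodent or other animal cancer study; inconclusive means only studies judged inadequate by the national testing program; inactive means tested in at least one study, none positive.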

This series can be described thus: DSSTox (CPDBAS) Carcinogenic Potency Database Summary SingleCellCall Results. Particulars: animal chronic carcinogenicity bioassays, CPDB summary call. Put shortly: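 Categorical carcinogenicity call compiled from published chronic rodent and other animal cancer bioassays; based on the most positive result across experiments for each sex-species, assigned on minimal evidence for or against activity.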
Consider `[O]=[Nb](=[O])[OH]`, for which the outcome was inactive. With `[Cd+2].[Cl-].[Cl-]` the entry was “active; inactive”; with `CC(C)(C)c1cc([N+](=O)[O-])cc([N+](=O)[O-])c1OS(C)(=O)=O`, “inactive”. The result for `O=C1c2ccccc2C(=O)c2c(O)cccc21` reads “active”; that for `C=CC(=C)C`, “active”. On to `CCN(CC)C(=O)c1cccc(C)c1`, for which the result was inactive. With `ClC(Cl)=C(Cl)Cl` the entry was “active; inactive”. With `O=[N+]([O-])c1ccc(-c2cscn2)o1`, the result was active. The result for `c1ccc(-c2ccccc2)cc1` reads “inactive; active”; that for `Cn1c(N)nc2c3cccnc3ccc21`, “active; inactive”. For `CN(N=O)c1ccc(N=O)cc1`, the result was active. With `C=CC(OCC)OCC` the entry was “inactive”; with `O=C(O)COc1ccc(Cl)cc1Cl`, “inactive”; with `CC(=O)Nc1nc(-c2ccc([N+](=O)[O-])o2)cs1`, “active”. For the molecule `O=C(O)C1[O][Sb]2[O]C(=O)C([O]2)C(C(=O)O)[O][Sb]2[O]C(=O)C1[O]2` (stereo unspecified), the result was inactive. With `C/C=C/c1ccc(OC)cc1` the entry was “inactive”.

On to `C=Cc1ccccc1`, for which the outcome was active.

As for `CCC(Br)(CC)C(=O)NC(N)=O`, the outcome was inactive.

`CN(C)c1ccc(C(=N)c2ccc(N(C)C)cc2)cc1`: the outcome was active. The result for `O=[N+]([O-])OCC(CO[N+](=O)[O-])O[N+](=O)[O-]` reads “active”. With `CCN(Cc1cccc(S(=O)(=O)O)c1)c1ccc(C(=C2C=CC(=[N+](CC)Cc3cccc(S(=O)(=O)O)c3)C=C2)c2ccccc2S(=O)(=O)[O-])cc1` the entry was “inactive; active”. With `C=CCN(CC(C)=O)N=O` the entry was “active”; with `CC(I)C1OCC(CO)O1` (stereo unspecified), “active”. Take `Oc1cc2c(cc1O)[C@H]1c3ccc(O)c(O)c3OC[C@@]1(O)C2`: the outcome was active. In the case of `C=CCN(CC=C)N=O`, the outcome was active.

Take `CC(C)CON=O`: the outcome was active. With `CCC1(CCC(C)C)C(=O)NC(=O)NC1=O` the entry was “inactive”; with `CC(Cl)Cl`, “inactive; active”. As for `Cn1cnc([N+](=O)[O-])c1Sc1ncnc2nc[nH]c12`, the result was active. The result for `Nc1ccc(O)c(N)c1` reads “active”; that for `CCO`, “active”.

In the case of `CCCCCCCCCCCCCCN(C)N=O`, the outcome was active. Consider `C[C@H](CCC(=O)O)[C@H]1CC[C@H]2[C@@H]3CC[C@@H]4C[C@H](O)CC[C@]4(C)[C@H]3CC[C@]12C`, for which the result was inactive. With `NC1=NC(=O)C(c2ccccc2)O1` (stereo unspecified) the entry was “inactive; active”; with `O=C1O[C@@H](CN2CCOCC2)CN1/N=C/c1ccc([N+](=O)[O-])o1`, “active”; with `CCN(Cc1cccc(S(=O)(=O)O)c1)c1ccc(C(=C2C=CC(=[N+](CC)Cc3cccc(S(=O)(=O)[O-])c3)C=C2)c2ccccc2)cc1`, “active”. With `Nc1ccc(-c2ccc(N)c(N)c2)cc1N`, the outcome was active. With `ClCC(Br)CBr` (stereo unspecified) the entry was “active”; with `Cl[C@H]1OCCO[C@@H]1Cl`, “inactive”. With `O=C(O)CNCC(=O)O` the entry was “inactive”; with `Cc1nc(N)cc2[nH]c3ccccc3c12`, “active”. The result for `CCN(N=O)C(=O)NCCO` reads “active”; that for `Cc1ccc2c(c1)C(N1CCN(C)CC1)=Nc1ccccc1S2`, “inactive”. For `CCCCCC(/C=C/C=C\CCCCCCCC(=O)OC)OO` (stereo unspecified), the result was inactive. The result for `Nc1cnn([C@@H]2O[C@H](CO)[C@@H](O)[C@H]2O)c(=O)n1` reads “inactive”. The result for `Oc1ccc(O)cc1` reads “active”.
